In US11840584B2, “Simple and green method for preparation of acid modified cyclodextrin” (priority 2020, dated 2023):

Assay: Curcumin retention in curcumin-cyclodextrin inclusion complex solution left standing 10 days
Assay type: physicochemical
Settings: 10 days at room temperature without shielding from light

Structure (SMILES)	curcumin remained in the solution [%]
OC[C@H]1O[C@@H]2O[C@H]3[C@H](O)[C@@H](O)[C@@H](O[C@H]4[C@H](O)[C@@H](O)[C@@H](O[C@H]5[C@H](O)[C@@H](O)[C@@H](O[C@H]6[C@H](O)[C@@H](O)[C@@H](O[C@H]7[C@H](O)[C@@H](O)[C@@H](O[C@H]8[C@H](O)[C@@H](O)[C@@H](O[C@H]1[C@H](O)[C@H]2O)O[C@@H]8CO)O[C@@H]7CO)O[C@@H]6CO)O[C@@H]5CO)O[C@@H]4CO)O[C@@H]3CO [β-cyclodextrin]	32.30
OC[C@H]1O[C@@H]2O[C@H]3[C@H](O)[C@@H](O)[C@@H](O[C@H]4[C@H](O)[C@@H](O)[C@@H](O[C@H]5[C@H](O)[C@@H](O)[C@@H](O[C@H]6[C@H](O)[C@@H](O)[C@@H](O[C@H]7[C@H](O)[C@@H](O)[C@@H](O[C@H]8[C@H](O)[C@@H](O)[C@@H](O[C@H]9[C@H](O)[C@@H](O)[C@@H](O[C@H]1[C@H](O)[C@H]2O)O[C@@H]9CO)O[C@@H]8CO)O[C@@H]7CO)O[C@@H]6CO)O[C@@H]5CO)O[C@@H]4CO)O[C@@H]3CO [γ-cyclodextrin]	21.94
OC[C@H]1O[C@@H]2O[C@H]3[C@H](O)[C@@H](O)[C@@H](O[C@H]4[C@H](O)[C@@H](O)[C@@H](O[C@H]5[C@H](O)[C@@H](O)[C@@H](O[C@H]6[C@H](O)[C@@H](O)[C@@H](O[C@H]7[C@H](O)[C@@H](O)[C@@H](O[C@H]1[C@H](O)[C@H]2O)O[C@@H]7CO)O[C@@H]6CO)O[C@@H]5CO)O[C@@H]4CO)O[C@@H]3CO [α-cyclodextrin]	36.83
